Test results: PMC12524942, “Efficient Hydrolysis of Dichlorvos in Water by Stenotrophomonas acidaminiphila G1 and Methyl Parathion Hydrolase” (International Journal of Molecular Sciences, 2025)

Target: T1, MPD (methyl parathion hydrolase) (Stenotrophomonas sp. YC-1, UniProt Q0PWQ4)
T1 construct: full ORF (primers from […] to stop; locus Chr1:1174990-1175985, 996 bp), pET28a EcoRI/HindIII, His tag, E. coli BL21(DE3); 331 residues per monomer
Assay: UPLC of residual DDVP, Michaelis-Menten fit
Assay type: biochemical
Conditions: 37 °C, 1 min; DDVP 0.01 to 0.04 mM; enzyme refolded from urea

T1 sequence (Q0PWQ4 entry or part of it): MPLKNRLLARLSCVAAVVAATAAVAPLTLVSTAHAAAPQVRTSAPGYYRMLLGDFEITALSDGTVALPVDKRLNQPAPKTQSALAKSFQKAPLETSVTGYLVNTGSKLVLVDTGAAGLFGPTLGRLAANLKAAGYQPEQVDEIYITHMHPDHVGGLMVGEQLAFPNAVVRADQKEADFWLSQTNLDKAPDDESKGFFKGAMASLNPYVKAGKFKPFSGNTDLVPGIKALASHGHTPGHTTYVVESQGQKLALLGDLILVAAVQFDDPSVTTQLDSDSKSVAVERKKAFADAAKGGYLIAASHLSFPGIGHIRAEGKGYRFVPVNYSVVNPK

In the case of `COP(=O)(OC)OC=C(Cl)Cl` [DDVP, Dichlorvos], the Km was 99 µM.
